Measured values published in ChEMBL document CHEMBL1201862, “PubChem BioAssay data set” (2004).
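Values below derive from 48-hour exposures of cells grown in 96-well plates, with endpoints linearly interpolated between the two concentrations bracketing the appropriate inhibition level. GI50 marks 50% less growth.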 The source made the active and inactive calls. No stated cut-off is given here; in the data, active = GI50 up to about 1.1 µM and inactive = higher.

How the values were obtained:
Assay in all cases: inhibition of tumour cell growth, NCI panel, 48 h
TK-10 = system: TK-10
OVCAR-3 = system: OVCAR-3
NCI-H460 = system: NCI-H460
UACC-257 = system: UACC-257
HCC 2998 = system: HCC 2998
SF-268 = system: SF-268
DLD-1 = system: DLD-1
786-0 = system: 786-0
ACHN = system: ACHN
A549 = system: A549
SK-MEL-2 = system: SK-MEL-2
K562 = system: K562
HL-60 = system: HL-60
T47D = system: T47D
Hs-578T = system: Hs-578T
RXF 393 = system: RXF 393
MDA-MB-231 = system: MDA-MB-231
HOP-92 = system: HOP-92
MCF7 = system: MCF7
BT-549 = system: BT-549

Structure (SMILES): CNS(=O)(=O)NNS(=O)(=O)c1ccc2ccccc2c1
- GI50 (TK-10): > 100 µM (inactive)
- GI50 (OVCAR-3): > 100 µM (inactive)
- GI50 (NCI-H460): 40.2 µM (inactive)
- GI50 (UACC-257): > 100 µM (inactive)
- GI50 (HCC 2998): > 100 µM (inactive)
- GI50 (SF-268): > 100 µM (inactive)
- GI50 (DLD-1): > 100 µM (inactive)
- GI50 (786-0): > 100 µM (inactive)
- GI50 (ACHN): > 100 µM (inactive)
- GI50 (A549): > 100 µM (inactive)
- GI50 (SK-MEL-2): > 100 µM (inactive)
- GI50 (K562): > 100 µM (inactive)
- GI50 (HL-60): > 100 µM (inactive)

Structure (SMILES): O=C1Nc2ccccc2/C1=C\c1c(Cl)nc2n1CCS2
- GI50 (TK-10): 19.7 µM (inactive)
- GI50 (T47D): 19.6 µM (inactive)
- GI50 (Hs-578T): 16.6 µM (inactive)
- GI50 (OVCAR-3): 20.4 µM (inactive)
- GI50 (NCI-H460): 18.2 µM (inactive)
- GI50 (UACC-257): 13.7 µM (inactive)
- GI50 (HCC 2998): 17.9 µM (inactive)
- GI50 (SF-268): 27.4 µM (inactive)
- GI50 (786-0): 23.4 µM (inactive)
- GI50 (ACHN): 38.3 µM (inactive)
- GI50 (RXF 393): 22.6 µM (inactive)
- GI50 (MDA-MB-231): 19 µM (inactive)
- GI50 (HOP-92): 34 µM (inactive)
- GI50 (A549): 31.3 µM (inactive)
- GI50 (SK-MEL-2): 14.1 µM (inactive)
- GI50 (MCF7): 13 µM (inactive)
- GI50 (K562): 21.3 µM (inactive)
- GI50 (BT-549): 19.5 µM (inactive)
- GI50 (HL-60): 16.8 µM (inactive)

Structure (SMILES): CC(C)c1ccc(O)c(=O)c(O)c1.CC(C)c1ccc(O)c(=O)cc1.CC(C)c1cccc(=O)c(O)c1.CC(C)c1ccccc(=O)c1O
- GI50 (TK-10): 0.459 µM (active)
- GI50 (T47D): 1.88 µM (inactive)
- GI50 (Hs-578T): 4.46 µM (inactive)
- GI50 (OVCAR-3): 0.279 µM (active)
- GI50 (NCI-H460): 0.191 µM (active)
- GI50 (UACC-257): 0.322 µM (active)
- GI50 (HCC 2998): 0.304 µM (active)
- GI50 (SF-268): 0.632 µM (active)
- GI50 (786-0): 0.719 µM (active)
- GI50 (ACHN): 0.47 µM (active)
- GI50 (RXF 393): 0.432 µM (active)
- GI50 (MDA-MB-231): 1.79 µM (inactive)
- GI50 (HOP-92): 5.94 µM (inactive)
- GI50 (A549): 1.07 µM (active)
- GI50 (SK-MEL-2): 0.204 µM (active)
- GI50 (MCF7): 0.935 µM (active)
- GI50 (K562): 0.571 µM (active)
- GI50 (BT-549): 4.8 µM (inactive)
- GI50 (HL-60): 0.281 µM (active)

Structure (SMILES): O=C1NC(c2ccccc2)(c2ccccc2)C(=O)N1CCCCCCN1C(=O)NC(c2ccccc2)(c2ccccc2)C1=O
- GI50 (TK-10): 25 µM (inactive)
- GI50 (OVCAR-3): 83.2 µM (inactive)
- GI50 (NCI-H460): > 100 µM (inactive)
- GI50 (UACC-257): 26.2 µM (inactive)
- GI50 (HCC 2998): > 100 µM (inactive)
- GI50 (SF-268): 21.5 µM (inactive)
- GI50 (DLD-1): > 100 µM (inactive)
- GI50 (786-0): 12.6 µM (inactive)
- GI50 (ACHN): 33.3 µM (inactive)
- GI50 (HOP-92): 4.83 µM (inactive)
- GI50 (A549): 21.2 µM (inactive)
- GI50 (SK-MEL-2): 15.7 µM (inactive)
- GI50 (K562): 52.8 µM (inactive)
- GI50 (HL-60): > 100 µM (inactive)

Structure (SMILES): OCCCc1ccc2c(c1)[C@H](CO)[C@@H](c1ccc(O)cc1)O2
- GI50 (TK-10): > 100 µM (inactive)
- GI50 (T47D): 39.2 µM (inactive)
- GI50 (Hs-578T): 19.5 µM (inactive)
- GI50 (OVCAR-3): > 100 µM (inactive)
- GI50 (NCI-H460): > 100 µM (inactive)
- GI50 (UACC-257): 46 µM (inactive)
- GI50 (HCC 2998): 16.6 µM (inactive)
- GI50 (SF-268): > 100 µM (inactive)
- GI50 (786-0): > 100 µM (inactive)
- GI50 (ACHN): > 100 µM (inactive)
- GI50 (RXF 393): > 100 µM (inactive)
- GI50 (MDA-MB-231): > 100 µM (inactive)
- GI50 (HOP-92): > 100 µM (inactive)
- GI50 (A549): > 100 µM (inactive)
- GI50 (SK-MEL-2): > 100 µM (inactive)
- GI50 (MCF7): > 100 µM (inactive)
- GI50 (K562): > 100 µM (inactive)
- GI50 (BT-549): 20.4 µM (inactive)
- GI50 (HL-60): 78.2 µM (inactive)

Structure (SMILES): Cc1cc(C)c(S(=O)(=O)N[C@@H](/C=C(\Br)CO)C(C)C)c(C)c1
- GI50 (TK-10): 34.5 µM (inactive)
- GI50 (T47D): 25.9 µM (inactive)
- GI50 (Hs-578T): 22.5 µM (inactive)
- GI50 (OVCAR-3): 21.2 µM (inactive)
- GI50 (NCI-H460): 27.7 µM (inactive)
- GI50 (UACC-257): 21.5 µM (inactive)
- GI50 (HCC 2998): 24.5 µM (inactive)
- GI50 (SF-268): 30.7 µM (inactive)
- GI50 (786-0): 30.5 µM (inactive)
- GI50 (ACHN): 30.4 µM (inactive)
- GI50 (RXF 393): 23.4 µM (inactive)
- GI50 (MDA-MB-231): 23.6 µM (inactive)
- GI50 (HOP-92): 23.1 µM (inactive)
- GI50 (A549): 30.8 µM (inactive)
- GI50 (SK-MEL-2): 16.1 µM (inactive)
- GI50 (MCF7): 19.6 µM (inactive)
- GI50 (K562): 18.5 µM (inactive)
- GI50 (BT-549): 40.3 µM (inactive)
- GI50 (HL-60): 17.9 µM (inactive)

Structure (SMILES): COc1cc([C@H]2Oc3c(OC)cc(CCCO)cc3[C@@H]2CO)ccc1O [DIHYDRODEHYDRODICONIFERY ALCOHOL]
- GI50 (TK-10): > 100 µM (inactive)
- GI50 (T47D): 30.3 µM (inactive)
- GI50 (Hs-578T): 47.2 µM (inactive)
- GI50 (OVCAR-3): > 100 µM (inactive)
- GI50 (NCI-H460): > 100 µM (inactive)
- GI50 (UACC-257): 43.4 µM (inactive)
- GI50 (HCC 2998): > 100 µM (inactive)
- GI50 (SF-268): > 100 µM (inactive)
- GI50 (786-0): > 100 µM (inactive)
- GI50 (ACHN): > 100 µM (inactive)
- GI50 (RXF 393): > 100 µM (inactive)
- GI50 (MDA-MB-231): 27.2 µM (inactive)
- GI50 (HOP-92): 89.5 µM (inactive)
- GI50 (A549): > 100 µM (inactive)
- GI50 (SK-MEL-2): > 100 µM (inactive)
- GI50 (MCF7): 37.2 µM (inactive)
- GI50 (K562): > 100 µM (inactive)
- GI50 (BT-549): 94.4 µM (inactive)
- GI50 (HL-60): > 100 µM (inactive)

Structure (SMILES): Cc1ccc2[nH]c3c(c2c1)C1CCC(C(C)(C)C)CC1C1C(=O)N(c2ccc4c(c2)OCO4)C(=O)C31 (stereo unspecified)
- GI50 (TK-10): 2.05 µM (inactive)
- GI50 (T47D): 2.06 µM (inactive)
- GI50 (Hs-578T): 1.55 µM (inactive)
- GI50 (OVCAR-3): 1.52 µM (inactive)
- GI50 (NCI-H460): 1.78 µM (inactive)
- GI50 (UACC-257): 9.68 µM (inactive)
- GI50 (HCC 2998): 2.38 µM (inactive)
- GI50 (SF-268): 2.03 µM (inactive)
- GI50 (786-0): 1.63 µM (inactive)
- GI50 (ACHN): 1.87 µM (inactive)
- GI50 (RXF 393): 2.26 µM (inactive)
- GI50 (MDA-MB-231): 2.29 µM (inactive)
- GI50 (HOP-92): 2.24 µM (inactive)
- GI50 (A549): 2.31 µM (inactive)
- GI50 (SK-MEL-2): 7.18 µM (inactive)
- GI50 (MCF7): 3.24 µM (inactive)
- GI50 (K562): 3.01 µM (inactive)
- GI50 (BT-549): 7.87 µM (inactive)
- GI50 (HL-60): 2.72 µM (inactive)
